# Results from patent US9932637B2, “Genetic polymorphisms associated with cardiovascular disorders and drug response, methods of detection and uses thereof” (CELERA CORPORATION, priority 2003, dated 2018).
# Tested on: patients with prior myocardial infarction (CARE study)
# Test: CARE: association of SNPs with pravastatin treatment in cardiovascular events prevention (logistic regression, odds ratio pravastatin vs placebo by genotype; Table 8)
# Format: in vivo, human
# Conditions: All Patients; for Total Cardiovascular Disease Events, n/total (%) / Non-fatal MI (def & prob), n/total (%) / Fatal/Non-fatal MI (def & prob), n/total (%) / Fatal/Non-fatal Atherosclerotic CV Disease, n/total (%) / Hosp. for Cardiovascular Disease, n/total (%) / Total Mortality, n/total (%): Prava
# Source text: In order to identify genetic markers associated with acute coronary events (e.g. MI, stroke, unstable angina, congestive heart failure, etc.) or response to statin treatment for the prevention of coronary events, samples from the Cholesterol and Recurrent Events (CARE) study (a randomized multicentral double-blinded trial on secondary prevention of acute coronary events with pravastatin) (Sacks et al., 1991, Am. J. Cardiol. 68: 1436-1446) were genotyped. A well-documented myocardial infarction (MI) was one of the enrollment criteria for entry into the CARE study. Patients were enrolled in the CARE trial from 80 participating study centers. […] Patients were randomized to receive either 40 mg of pravastatin once daily or a matching placebo. The primary endpoint of the trial was death from coronary heart disease and the median duration of follow-up was 5.0 years (range, 4.0 to 6.2 years). […] Secondary endpoints of other related cardiovascular or metabolic disease events, and changes in clinical variables were also recorded in pravastatin-treated and placebo groups. All individuals included in the study had signed a written informed consent form and the study protocol was approved by the respective Institutional Review Boards (IRBs).
# For genotyping SNPs in CARE patient samples, DNA was extracted from blood samples using conventional DNA extraction methods such as the QIA-amp kit from Qiagen. Genotypes were obtained on an ABI PRISM® 7900HT Sequence Detection PCR system (Applied Biosystems, Foster City, Calif.) by kinetic allele-specific PCR, similar to the method described by Germer et al. (Germer S., Holland M. J., Higuchi R. 2000, Genome Res. 10: 258-266).
# Statistical analysis for association of SNPs with pravastatin treatment in cardiovascular events prevention (Table 8) was carried out using an overall logistic regression model that included an intercept, a parameter for the effect of a genotype containing two rare alleles versus a genotype containing no rare alleles, a parameter for the effect of a genotype containing one rare allele versus a genotype containing no rare alleles, a parameter for the effect of use of pravastatin versus the use of placebo, and parameters for the interaction effects between SNP genotypes and pravastatin use. The test of the overall model is a chi-square test with two degrees of freedom for analyses containing all three genotypes, and one degree of freedom for analyses containing two genotypes.
# Effect sizes were estimated through odds ratios (pravastatin group versus placebo) for carriers of each genotype (groups of 0, 1, and 2 minor allele carriers). The effect was considered to be significant if p-value for testing whether any of the interactions between SNP genotypes and pravastatin use were <0.05. […] Odds ratios less than one indicate that the specific SNP allele has a protective effect and odds ratios greater than one indicate that the specific SNP allele has an adverse effect.
# [1] = HLA-DPB1 hCV25651174, Coronary Artery Bypass or Revascularization
# [2] = HLA-DPB1 hCV25651174, Fatal CHD/Definite Non-fatal MI
# [3] = HLA-DPB1 hCV25651174, Fatal/Non-fatal Atherosclerotic CV Disease
# [4] = HLA-DPB1 hCV25651174, Fatal/Non-fatal MI (def & prob)
# [5] = HLA-DPB1 hCV25651174, Hosp. for Cardiovascular Disease
# [6] = HLA-DPB1 hCV25651174, Non-fatal MI (def & prob)
# [7] = HLA-DPB1 hCV25651174, Total Cardiovascular Disease Events
# [8] = HLA-DPB1 hCV25651174, Total Coronary Heart Disease Events
# [9] = ICAM1 hCV8726337, Fatal/Non-fatal MI (def & prob)
# [10] = ICAM1 hCV8726337, Non-fatal MI (def & prob)
# [11] = ICAM3 hCV25473653, Fatal/Non-fatal Atherosclerotic CV Disease
# [12] = ICAM3 hCV25473653, Total Cardiovascular Disease Events
# [13] = IGF2R hCV2200985, Hosp. for Cardiovascular Disease
compound,measurement,setting,value
CC[C@H](C)C(=O)O[C@H]1C[C@H](O)C=C2C=C[C@H](C)[C@H](CC[C@@H](O)C[C@@H](O)CC(=O)O)[C@H]21 [pravastatin],"Total Cardiovascular Disease Events, n/total (%)","HLA-DPB1 hCV25651174, 2 Rare Alleles, n/total 64/144",(44.4%)
same,"Prava vs. Placebo Odds Ratio, 0 Rare Alleles",[1],0.68
same,"Prava vs. Placebo Odds Ratio, 1 Rare Alleles",[1],0.58
same,"Prava vs. Placebo Odds Ratio, 2 Rare Alleles",[1],2.11
same,"Prava vs. Placebo Odds Ratio, 0 Rare Alleles",[2],0.57
same,"Prava vs. Placebo Odds Ratio, 1 Rare Alleles",[2],0.74
same,"Prava vs. Placebo Odds Ratio, 2 Rare Alleles",[2],1.77
same,"Prava vs. Placebo Odds Ratio, 0 Rare Alleles",[3],0.66
same,"Prava vs. Placebo Odds Ratio, 1 Rare Alleles",[3],0.78
same,"Prava vs. Placebo Odds Ratio, 2 Rare Alleles",[3],1.60
same,"Prava vs. Placebo Odds Ratio, 0 Rare Alleles",[4],0.54
same,"Prava vs. Placebo Odds Ratio, 1 Rare Alleles",[4],0.67
same,"Prava vs. Placebo Odds Ratio, 2 Rare Alleles",[4],1.97
same,"Prava vs. Placebo Odds Ratio, 0 Rare Alleles",[5],0.70
same,"Prava vs. Placebo Odds Ratio, 1 Rare Alleles",[5],0.70
same,"Prava vs. Placebo Odds Ratio, 2 Rare Alleles",[5],1.42
same,"Prava vs. Placebo Odds Ratio, 0 Rare Alleles",[6],0.59
same,"Prava vs. Placebo Odds Ratio, 1 Rare Alleles",[6],0.68
same,"Prava vs. Placebo Odds Ratio, 2 Rare Alleles",[6],2.23
same,"Prava vs. Placebo Odds Ratio, 0 Rare Alleles",[7],0.69
same,"Prava vs. Placebo Odds Ratio, 1 Rare Alleles",[7],0.71
same,"Prava vs. Placebo Odds Ratio, 2 Rare Alleles",[7],1.35
same,"Prava vs. Placebo Odds Ratio, 0 Rare Alleles",[8],0.69
same,"Prava vs. Placebo Odds Ratio, 1 Rare Alleles",[8],0.73
same,"Prava vs. Placebo Odds Ratio, 2 Rare Alleles",[8],1.81
same,"Non-fatal MI (def & prob), n/total (%)","ICAM1 hCV8726337, 0 Rare Alleles, n/total 28/495",(5.7%)
same,"Fatal/Non-fatal MI (def & prob), n/total (%)","ICAM1 hCV8726337, 0 Rare Alleles, n/total 31/495",(6.3%)
same,"Non-fatal MI (def & prob), n/total (%)","ICAM1 hCV8726337, 1 Rare Allele, n/total 76/736",(10.3%)
same,"Fatal/Non-fatal MI (def & prob), n/total (%)","ICAM1 hCV8726337, 1 Rare Allele, n/total 84/736",(11.4%)
same,"Non-fatal MI (def & prob), n/total (%)","ICAM1 hCV8726337, 2 Rare Alleles, n/total 30/282",(10.6%)
same,"Fatal/Non-fatal MI (def & prob), n/total (%)","ICAM1 hCV8726337, 2 Rare Alleles, n/total 31/282",(11.0%)
same,"Prava vs. Placebo Odds Ratio, 0 Rare Alleles",[9],0.39
same,"Prava vs. Placebo Odds Ratio, 1 Rare Alleles",[9],0.85
same,"Prava vs. Placebo Odds Ratio, 2 Rare Alleles",[9],0.77
same,"Prava vs. Placebo Odds Ratio, 0 Rare Alleles",[10],0.39
same,"Prava vs. Placebo Odds Ratio, 1 Rare Alleles",[10],0.83
same,"Prava vs. Placebo Odds Ratio, 2 Rare Alleles",[10],0.94
same,"Fatal/Non-fatal Atherosclerotic CV Disease, n/total (%)","ICAM3 hCV25473653, 0 Rare Alleles, n/total 299/924",(32.4%)
same,"Total Cardiovascular Disease Events, n/total (%)","ICAM3 hCV25473653, 0 Rare Alleles, n/total 376/924",(40.7%)
same,"Fatal/Non-fatal Atherosclerotic CV Disease, n/total (%)","ICAM3 hCV25473653, 1 Rare Allele, n/total 191/511",(37.4%)
same,"Total Cardiovascular Disease Events, n/total (%)","ICAM3 hCV25473653, 1 Rare Allele, n/total 230/511",(45.0%)
same,"Fatal/Non-fatal Atherosclerotic CV Disease, n/total (%)","ICAM3 hCV25473653, 2 Rare Alleles, n/total 14/70",(20.0%)
same,"Total Cardiovascular Disease Events, n/total (%)","ICAM3 hCV25473653, 2 Rare Alleles, n/total 19/70",(27.1%)
same,"Prava vs. Placebo Odds Ratio, 0 Rare Alleles",[11],0.71
same,"Prava vs. Placebo Odds Ratio, 1 Rare Alleles",[11],0.97
same,"Prava vs. Placebo Odds Ratio, 2 Rare Alleles",[11],0.37
same,"Prava vs. Placebo Odds Ratio, 0 Rare Alleles",[12],0.71
same,"Prava vs. Placebo Odds Ratio, 1 Rare Alleles",[12],0.93
same,"Prava vs. Placebo Odds Ratio, 2 Rare Alleles",[12],0.37
same,"Hosp. for Cardiovascular Disease, n/total (%)","IGF2R hCV2200985, 0 Rare Alleles, n/total 465/1175",(39.6%)
same,"Hosp. for Cardiovascular Disease, n/total (%)","IGF2R hCV2200985, 1 Rare Allele, n/total 137/316",(43.4%)
same,"Hosp. for Cardiovascular Disease, n/total (%)","IGF2R hCV2200985, 2 Rare Alleles, n/total 5/24",(20.8%)
same,"Prava vs. Placebo Odds Ratio, 0 Rare Alleles",[13],0.75
same,"Prava vs. Placebo Odds Ratio, 1 Rare Alleles",[13],0.88
same,"Prava vs. Placebo Odds Ratio, 2 Rare Alleles",[13],0.12
same,"Total Mortality, n/total (%)","IL1A hCV9546471, 0 Rare Alleles, n/total 52/759",(6.9%)
same,"Total Mortality, n/total (%)","IL1A hCV9546471, 1 Rare Allele, n/total 28/617",(4.5%)
same,"Total Mortality, n/total (%)","IL1A hCV9546471, 2 Rare Alleles, n/total 4/132",(3.0%)
same,"Prava vs. Placebo Odds Ratio, 0 Rare Alleles","IL1A hCV9546471, Total Mortality",1.40
